Source: patent US20250353857A1, “COMPOUND ACTIVE AS INHIBITOR OF COLONY STIMULATION FACTOR-1 RECEPTOR (CSF-1 R)” (priority 2022, published 2025)

Target: CSF1R (Homo sapiens (Human), UniProt P07333)
Experiment: CSF1R enzymatic inhibitory assay (Invitrogen Z'-LYTE, FRET);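 also: kinase phosphorylates a tyrosine on a coumarin/fluorescein FRET peptide, a protease cuts peptide left unphosphorylated, inhibition quantified from the donor-to-acceptor emission ratio with excitation at 400 nm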
Format: biochemical
Settings: Z'-LYTE assay, ATP concentration equal to Km, average of at least 2 titration curves; read-out: CSF1R (IC50)

CSF1R, sequence (P07333 20-972): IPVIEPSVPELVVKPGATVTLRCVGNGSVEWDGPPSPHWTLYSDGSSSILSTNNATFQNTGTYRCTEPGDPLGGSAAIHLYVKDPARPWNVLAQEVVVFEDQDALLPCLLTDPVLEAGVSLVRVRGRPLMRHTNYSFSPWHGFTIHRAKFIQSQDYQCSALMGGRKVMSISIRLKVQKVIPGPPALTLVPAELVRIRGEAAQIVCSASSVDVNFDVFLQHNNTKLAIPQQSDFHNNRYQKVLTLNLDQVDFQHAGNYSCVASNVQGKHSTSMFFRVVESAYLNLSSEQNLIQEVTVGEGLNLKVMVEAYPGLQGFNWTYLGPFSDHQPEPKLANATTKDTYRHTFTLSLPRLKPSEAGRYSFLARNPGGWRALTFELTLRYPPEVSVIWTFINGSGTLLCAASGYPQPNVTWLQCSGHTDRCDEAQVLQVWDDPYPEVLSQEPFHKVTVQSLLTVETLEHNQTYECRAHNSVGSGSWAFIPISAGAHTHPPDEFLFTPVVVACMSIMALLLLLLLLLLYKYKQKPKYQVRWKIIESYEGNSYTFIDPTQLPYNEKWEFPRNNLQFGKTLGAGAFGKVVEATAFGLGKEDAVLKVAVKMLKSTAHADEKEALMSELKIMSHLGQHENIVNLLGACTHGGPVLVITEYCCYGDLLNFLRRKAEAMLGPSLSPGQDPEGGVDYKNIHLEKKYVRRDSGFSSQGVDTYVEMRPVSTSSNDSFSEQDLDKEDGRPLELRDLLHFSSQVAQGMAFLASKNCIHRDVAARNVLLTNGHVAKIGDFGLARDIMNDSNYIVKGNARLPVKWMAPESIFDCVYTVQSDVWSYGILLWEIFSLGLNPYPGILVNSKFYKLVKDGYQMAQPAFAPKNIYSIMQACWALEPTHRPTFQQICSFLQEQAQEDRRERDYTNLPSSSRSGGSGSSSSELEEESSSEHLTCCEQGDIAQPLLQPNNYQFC

`CN(Cc1ccccc1)c1ncnc2sc(-c3ccc(CO)cc3)cc12` [BAHO-3-107, (4-(4-(Benzyl(methyl)amino)thieno[2,3-d]pyrimidin-6-yl)phenyl)methanol] showed an IC50 of 707 ± 79 nM.

With `Cc1cccc(CN(C)c2ccnc3[nH]ccc23)c1` [CJ1_78] the IC50 was > 500 nM.

For `CC(C)N(Cc1ccccc1)c1ncnc2[nH]c(-c3ccc(CO)cc3)nc12` [EH02-21, (4-(6-(Benzyl(isopropyl)amino)-9H-purin-8-yl)phenyl)methanol], the IC50 was > 1000 nM.

For `CCN(Cc1ccccc1)c1ncnc2[nH]c(-c3ccc(OC)cc3)nc12` [EH-93, N-Benzyl-N-ethyl-8-(4-methoxyphenyl)-9H-purin-6-amine], the IC50 was > 50 nM.

For `Cc1cccc(CN(C)c2ncnc3[nH]c(-c4ccc(-c5nnn[nH]5)cc4)cc23)c1` [FAB 02-14, 6-(4-(1H-Tetrazol-5-yl)phenyl)-N-methyl-N-(3-methylbenzyl)-7H-pyrrolo[2,3-d]pyrimidin-4-amine], the IC50 was 3 nM.

Work on `COc1ccc(-c2cc3c(NCc4ccccc4)ncnc3[nH]2)cc1` [JK-356, N-Benzyl-6-(4-methoxyphenyl)-7H-pyrrolo[2,3-d]pyrimidin-4-amine] yielded an IC50 of 6.2 ± 0.4 nM.

In the case of `Oc1ccc(-c2cc3c(NCc4ccccc4)ncnc3[nH]2)cc1` [JK-367, 4-(4-(Benzylamino)-7H-pyrrolo[2,3-d]pyrimidin-6-yl)phenol], the IC50 is reported as > 200 nM.

`CCOc1ccccc1-c1nc2c(N(C)Cc3ccccc3)ncnc2[nH]1` [JKS01-057, N-Benzyl-8-(2-ethoxyphenyl)-N-methyl-9H-purin-6-amine] was tested, and the IC50 was > 1000 nM.

In the case of `C[C@H](c1ccccc1)N(C)c1ncnc2[nH]c(-c3ccccc3)cc12` [KUL01-093, (R)—N-Methyl-6-phenyl-N-(1-phenylethyl)-7H-pyrrolo[2,3-d]pyrimidin-4-amine], the IC50 is reported as 54 ± 5 nM.

`OCC(O)(CO)c1ccc(-c2cc3c(N4CCCC4C4CCOCC4)ncnc3[nH]2)cc1` (centres unmarked) [LR-2-052-2] showed an IC50 of 3 nM.

In the case of `Cc1cccc(CN(C)c2ncnc3[nH]c(-c4ccc(C5(O)COC5)cc4)cc23)c1` [LR-2-060-1, 3-(4-(4-(Methyl(3-methylbenzyl)amino)-7H-pyrrolo[2,3-d]pyrimidin-6-yl)phenyl)oxetan-3-ol], the IC50 is reported as 0.3 nM.

With `Cc1cccc(CN(C)c2ncnc3[nH]c(-c4ccc(C(O)(CO)CO)cc4)cc23)c1` [LR-2-060-2, 2-(4-(4-(Methyl(3-methylbenzyl)amino)-7H-pyrrolo[2,3-d]pyrimidin-6-yl)phenyl)propane-1,2,3-triol] the IC50 was 3 nM.

In the case of `OC1(c2ccc(-c3cc4c(N5CCCC5C5CCOCC5)ncnc4[nH]3)cc2)COC1` (centres unmarked) [LR-2-067], the IC50 is reported as 3 nM.

With `CN(Cc1cccc(Cl)c1)c1ncnc2[nH]c(-c3ccc(CN4CCOCC4)cc3)cc12` [LR-2-088 (3), N-(3-Chlorobenzyl)-N-methyl-6-(4-(morpholinomethyl)phenyl)-7H-pyrrolo[2,3-d]pyrimidin-4-amine] the IC50 was 0.9 ± 0.9 nM.

In the case of `CN(Cc1ccccc1Cl)c1ncnc2[nH]c(-c3ccc(CN4CCOCC4)cc3)cc12` [LR-2-091 (2), N-(2-Chlorobenzyl)-N-methyl-6-(4-(morpholinomethyl)phenyl)-7H-pyrrolo[2,3-d]pyrimidin-4-amine], the IC50 is reported as 1.4 ± 0.2 nM.

With `CN(Cc1c(Cl)cccc1Cl)c1ncnc2[nH]c(-c3ccc(CN4CCOCC4)cc3)cc12` [LR-2-094 (2), N-(2,6-Dichlorobenzyl)-N-methyl-6-(4-(morpholinomethyl)phenyl)-7H-pyrrolo[2,3-d]pyrimidin-4-amine] the IC50 was 8.7 ± 1.1 nM.

`Cc1cccc(CN(C)c2ncnc3[nH]c(-c4cnn(C(C)C)c4)cc23)c1` [LR-2-108, 6-(1-Isopropyl-1H-pyrazol-4-yl)-N-methyl-N-(3-methylbenzyl)-7H-pyrrolo[2,3-d]pyrimidin-4-amine] gave an IC50 of 0.4 ± 0.3 nM.

With `Cc1cccc(CN(C)c2ncnc3[nH]c(-c4ccc(P(C)(C)=O)cc4)cc23)c1` [LR-2-116, Dimethyl(4-(4-(methyl(3-methylbenzyl)amino)-7H-pyrrolo[2,3-d]pyrimidin-6-yl)phenyl)phosphine oxide] the IC50 was < 0.2 nM.

Work on `CN(Cc1cc(Cl)ccc1Cl)c1ncnc2[nH]c(-c3ccc(CN4CCOCC4)cc3)cc12` [LR-2-123, N-(2,5-Dichlorobenzyl)-N-methyl-6-(4-(morpholinomethyl)phenyl)-7H-pyrrolo[2,3-d]pyrimidin-4-amine] yielded an IC50 of 2.7 ± 0.4 nM.

`COc1ccc(-c2cc3c(N4CCCC4C)ncnc3[nH]2)cc1` (centres unmarked) [MS1-60-134, 6-(4-Methoxyphenyl)-4-(2-methylpyrrolidin-1-yl)-7H-pyrrolo[2,3-d]pyrimidine] was tested, and the IC50 was 0.7 ± 0.1 nM.

`COc1ccc(-c2cc3c(N4CCCC4)ncnc3[nH]2)cc1` [MS-46-93, 6-(4-Methoxyphenyl)-4-(pyrrolidin-1-yl)-7H-pyrrolo[2,3-d]pyrimidine] was tested, and the IC50 was 1.1 ± 0.1 nM.

With `Cc1ccc(F)c(CN(C)c2ncnc3[nH]c(-c4ccccc4)cc23)c1F` [SH-01-126, N-(2,6-Difluoro-3-methylbenzyl)-N-methyl-6-phenyl-7H-pyrrolo[2,3-d]pyrimidin-4-amine] the IC50 was 9.1 ± 1.1 nM.

In the case of `CN(Cc1c(F)cccc1F)c1ncnc2[nH]c(-c3ccccc3)cc12` [SH-01-127, N-(2,6-Difluorobenzyl)-N-methyl-6-phenyl-7H-pyrrolo[2,3-d]pyrimidin-4-amine], the IC50 is reported as 9.2 ± 3.3 nM.

Work on `Cc1ccc(F)c(CN(C)c2ncnc3[nH]c(-c4ccc(CN5CCOCC5)cc4)cc23)c1F` [SH-01-128, N-(2,6-Difluoro-3-methylbenzyl)-N-methyl-6-(4-(morpholinomethyl)phenyl)-7H-pyrrolo[2,3-d]pyrimidin-4-amine] yielded an IC50 of 0.8 nM.

With `CN(Cc1c(F)cccc1F)c1ncnc2[nH]c(-c3ccc(CN4CCOCC4)cc3)cc12` [SH-01-129, N-(2,6-Difluorobenzyl)-N-methyl-6-(4-(morpholinomethyl)phenyl)-7H-pyrrolo[2,3-d]pyrimidin-4-amine] the IC50 was 1.2 nM.

`CN(Cc1ccccc1F)c1ncnc2[nH]c(-c3ccc(CO)cc3)nc12` [TIA02-130, N-Methyl-N-(2-fluorobenzyl)-8-(4-(hydroxymethyl)phenyl)-9H-purin-6-amine] showed an IC50 of 2.3 ± 0.2 nM.

Work on `CN(Cc1cccc(F)c1)c1ncnc2[nH]c(-c3ccc(CO)cc3)nc12` [TIA02-132, N-Methyl-N-(3-fluorobenzyl)-8-(4-(hydroxymethyl)phenyl)-9H-purin-6-amine] yielded an IC50 of 3.5 ± 2.2 nM.

With `CN(Cc1ccccn1)c1ncnc2[nH]c(-c3ccc(CO)cc3)nc12` [TIA02-164, N-Methyl-N-(pyridin-2-ylmethyl)-8-(4-(hydroxymethyl)phenyl)-9H-purin-6-amine] the IC50 was 11 ± 3 nM.

`Cc1ccc(CN(C)c2ncnc3[nH]c(-c4ccc(CO)cc4)nc23)cc1` [TIA02-174, N-Methyl-N-(4-methylbenzyl)-8-(4-(hydroxymethyl)phenyl)-9H-purin-6-amine] showed an IC50 of 12 ± 1 nM.

For `COc1cccc(CN(C)c2ncnc3[nH]c(-c4ccc(CO)cc4)nc23)c1` [TIA03-014, N-(3-Methoxybenzyl)-N-methyl-8-(4-(hydroxymethyl)phenyl)-9H-purin-6-amine], the IC50 was 2.7 ± 0.1 nM.

With `CN(Cc1cccnc1)c1ncnc2[nH]c(-c3ccc(CO)cc3)nc12` [TIA03-016, N-Methyl-N-(pyridin-3-ylmethyl)-8-(4-(hydroxymethyl)phenyl)-9H-purin-6-amine] the IC50 was 3.8 ± 0.4 nM.

With `CN(Cc1cccs1)c1ncnc2[nH]c(-c3ccc(CO)cc3)nc12` [TIA03-066, N-Methyl-N-(thiophen-2-ylmethyl)-8-(4-(hydroxymethyl)phenyl)-9H-purin-6-amine] the IC50 was 3 ± 0.6 nM.

`COc1ccc(CN(C)c2ncnc3[nH]c(-c4ccc(CO)cc4)nc23)cc1` [TIA03-078, N-(4-Methoxybenzyl)-N-methyl-8-(4-(hydroxymethyl)phenyl)-9H-purin-6-amine] was tested, and the IC50 was 61 ± 3 nM.

`COc1ccc(CN(C)c2ncnc3[nH]c(-c4ccc(CO)cc4)nc23)cc1OC` [TIA03-080, N-(3,4-Dimethoxybenzyl)-N-methyl-8-(4-(hydroxymethyl)phenyl)-9H-purin-6-amine] was tested, and the IC50 was 5.7 ± 0.3 nM.

`CN(Cc1cccc(C(F)(F)F)c1)c1ncnc2[nH]c(-c3ccc(CO)cc3)nc12` [TIA03-108, N-Methyl-N-(3-trifluoromethylbenzyl)-8-(4-(hydroxymethyl)phenyl)-9H-purin-6-amine] gave an IC50 of 11 ± 2 nM.

`Cc1ccccc1CN(C)c1ncnc2[nH]c(-c3ccc(CO)cc3)nc12` [TIA03-136, N-Methyl-N-(2-methylbenzyl)-8-(4-(hydroxymethyl)phenyl)-9H-purin-6-amine] showed an IC50 of 1.8 nM.

For `CN(CC1CCCCC1)c1ncnc2[nH]c(C3=CCCCC3)nc12` [TIA03-186, 8-(Cyclohex-1-en-1-yl)-N-(cyclohexylmethyl)-N-methyl-9H-purin-6-amine], the IC50 was 0.7 ± 0.2 nM.

In the case of `CN(CC1CCN(Cc2ccccc2)CC1)c1ncnc2[nH]c(-c3ccc(CO)cc3)nc12` [TIA04-053, N-Methyl-N-(1-benzylpiperidin-4-ylmethyl)-8-(4-(hydroxymethyl)phenyl)-9H-purin-6-amine], the IC50 is reported as 130 ± 12 nM.

With `CN(Cc1ccccc1)c1ncnc2[nH]ccc12` [TIA04-067, N-Benzyl-N-methyl-7H-pyrrolo[2,3-d]pyrimidin-4-amine] the IC50 was 68 ± 2 nM.

`Cc1cccc(CN(C)c2ncnc3[nH]ccc23)c1` [TIA04-069, N-Methyl-N-(3-methylbenzyl)-7H-pyrrolo[2,3-d]pyrimidin-4-amine] showed an IC50 of 35 nM.

For `NC1NC=Nc2[nH]c(-c3ccc(CO)cc3)cc21` (centres unmarked) [TIA05-102], the IC50 was 85 nM.

Molecule `OCc1ccc(-c2cc3c(N4CCCC4c4ccccc4)ncnc3[nH]2)cc1` (centres unmarked) [TIA05-178, (4-(4-(2-Phenylpyrrolidin-1-yl)-7H-pyrrolo[2,3-d]pyrimidin-6-yl)phenyl)methanol] has an IC50 of 0.7 ± 0.1 nM.

`CN(Cc1ccccc1)c1ncnc2[nH]cnc12` [TIA008, N-Benzyl-N-methyl-9H-purin-6-amine] showed an IC50 of 108 ± 7 nM.

`CN(Cc1ccccc1)c1ncnc2[nH]c(-c3ccccc3)nc12` [TIA072, N-Benzyl-N-methyl-8-phenyl-9H-purin-6-amine] gave an IC50 of 0.7 ± 0.1 nM.

In the case of `CN(Cc1ccccc1)c1ncnc2[nH]c(-c3ccccc3O)nc12` [TIA073, 2-(6-(Benzyl(methyl)amino)-9H-purin-8-yl)phenol], the IC50 is reported as 3.4 ± 0.2 nM.

For `OCc1ccc(-c2nc3c(NCc4ccccc4)ncnc3[nH]2)cc1` [TIA098, (4-(6-(Benzylamino)-9H-purin-8-yl)phenyl)methanol], the IC50 was 43 ± 6 nM.

`c1ccc(CNc2ncnc3[nH]c(-c4ccccc4)nc23)cc1` [TIA099, N-Benzyl-8-phenyl-9H-purin-6-amine] showed an IC50 of 85 ± 10 nM.
